Among the data in ChEMBL document CHEMBL4483862, “Open-source discovery of chemical leads for next-generation chemoprotective antimalarials” (2018) are IC50 and IC90 values, retold here.

Some results are limits rather than exact numbers.

In the assay the test system is Plasmodium berghei. The assay is described as follows: Luciferase/luciferin-expressing antifolate-resistant parasites were used to infect a culture of HepG2 cells that were pre-incubated with compounds. Infected hepatocytes emit light due to the luciferase reaction. Assay results are presented as the percent inhibition of light emission compared to control. […]. As to conditions: sporozoite; for IC90: read-out: LUCIFERASE INFECTION ASSAY - IC90. The class given is functional.

Turning to `CC(C)(C)c1ccc(S(=O)(=O)Nc2ccc(O)c(Sc3nc4ccccc4s3)c2)cc1`, the 90% effect concentration (IC90) (as a rule, the point of the concentration-response curve where the effect stands at 90%) was above 10 µM. In addition, the IC50 (commonly the point on the concentration scale where inhibition reaches its midpoint) (HEPG2TOX_HILL_SLOPE 0.314, HEPG2TOX_R_SQUARED 0.616, read-out: LUCIFERASE INFECTION ASSAY - IC50) is above 10 µM.
As for `CN1CCN(C(=O)c2ccc(-c3cnc4cnc(/C=C/c5ccccc5)cn34)cc2)CC1`, the 90% effect concentration (IC90) is above 7.79 µM. Also, the half-inhibitory concentration (IC50) (HEPG2TOX_HILL_SLOPE 0.285, HEPG2TOX_R_SQUARED 0.311, PBLUC_HILL_SLOPE 1.14, PBLUC_R_SQUARED 0.7, read-out: LUCIFERASE INFECTION ASSAY - IC50) was determined as 3.11 µM.
Regarding `CN(C)c1ccc(-c2cnc3cnc(-c4ccccc4N(C)C)cn23)cc1`, the IC90 was 0.0642 µM. Further, the IC50 (HEPG2TOX_HILL_SLOPE 0.323, HEPG2TOX_R_SQUARED 0.566, PBLUC_HILL_SLOPE 1.8, PBLUC_R_SQUARED 0.657, read-out: LUCIFERASE INFECTION ASSAY - IC50) came out at 0.0189 µM.
`Cc1ccc(Nc2ccc(S(=O)(=O)NC3=NCCCCC3)cc2[N+](=O)[O-])cc1`: the 90% effect concentration (IC90) was above 10 µM. The concentration for half-maximal inhibition (IC50) (HEPG2TOX_HILL_SLOPE 0.294, HEPG2TOX_R_SQUARED 0.717, PBLUC_HILL_SLOPE 0.103, PBLUC_R_SQUARED 0.0204, read-out: LUCIFERASE INFECTION ASSAY - IC50) is above 10 µM.
For `CCN(Cc1ccc(OCc2ccccc2)cc1)C(=O)CN1CCc2cc(S(N)(=O)=O)ccc21`, the 90% effect concentration (IC90) is above 10 µM. For the same compound, the 50% inhibitory concentration (IC50) (HEPG2TOX_HILL_SLOPE 0.311, HEPG2TOX_R_SQUARED 0.495, read-out: LUCIFERASE INFECTION ASSAY - IC50) is above 10 µM.
On to `N=C1C(c2nc(-c3ccccc3)cs2)C(=O)CN1c1ccc2c(c1)OCCO2` (stereo unspecified), for which the IC90 is above 8.43 µM. Moreover, the IC50 (HEPG2TOX_HILL_SLOPE 0.297, HEPG2TOX_R_SQUARED 0.47, PBLUC_HILL_SLOPE 1.65, PBLUC_R_SQUARED 0.172, read-out: LUCIFERASE INFECTION ASSAY - IC50) was above 8.43 µM.
On to `O=C(Nc1ccc2nc(-c3ccccc3Cl)[nH]c2c1)c1ccc(=O)[nH]n1`, for which the 90% effect concentration (IC90) was found to be 4.84 µM. Also, under “HEPG2TOX_HILL_SLOPE 0.281, HEPG2TOX_R_SQUARED 0.366, PBLUC_HILL_SLOPE 7.23, PBLUC_R_SQUARED 0.542, read-out: LUCIFERASE INFECTION ASSAY - IC50”, the IC50 was 3.58 µM.
With `Cc1ccc(C)c(S(=O)(=O)Oc2ccccc2C(=O)OCC(=O)c2c(C)[nH]c3ccccc23)c1`, the concentration for an effect of 90% (IC90) was above 10 µM. Further, for the setting “HEPG2TOX_HILL_SLOPE 0.276, HEPG2TOX_R_SQUARED 0.379, PBLUC_HILL_SLOPE 12.5, PBLUC_R_SQUARED 0.167, read-out: LUCIFERASE INFECTION ASSAY - IC50”, the IC50 was above 10 µM.
With `NC(=O)c1cc(S(=O)(=O)N2CCCC2)ccc1OCc1nc2ccccc2s1`, the 90% effect concentration (IC90) is above 10 µM. For the same compound, the concentration for half-maximal inhibition (IC50) (HEPG2TOX_HILL_SLOPE 0.311, HEPG2TOX_R_SQUARED 0.0458, PBLUC_HILL_SLOPE 3.01, PBLUC_R_SQUARED 0.0562, read-out: LUCIFERASE INFECTION ASSAY - IC50) was 7.99 µM.
Turning to `CC(=O)c1cccc(-c2cnc3ccc(-c4ccoc4)nn23)c1`, the concentration for an effect of 90% (IC90) amounted to 6.77 µM. Further, under “HEPG2TOX_HILL_SLOPE 0.314, HEPG2TOX_R_SQUARED 0.72, PBLUC_HILL_SLOPE 2.12, PBLUC_R_SQUARED 0.552, read-out: LUCIFERASE INFECTION ASSAY - IC50”, the IC50 was 2.41 µM.
For the compound `FC(F)(F)Oc1cccc(-c2nc3ccnc(NCc4ccccn4)c3[nH]2)c1`, the IC90 is above 10 µM. The half-maximal inhibitory concentration (IC50) (HEPG2TOX_HILL_SLOPE 0.276, HEPG2TOX_R_SQUARED 0.811, PBLUC_HILL_SLOPE 0.809, PBLUC_R_SQUARED 0.487, read-out: LUCIFERASE INFECTION ASSAY - IC50) worked out at 2.04 µM.
`CC(CCc1ccccc1)Nc1ccc(S(N)(=O)=O)cc1[N+](=O)[O-]` (stereo unspecified): the IC90 was above 10 µM. In addition, the IC50 (HEPG2TOX_HILL_SLOPE 0.279, HEPG2TOX_R_SQUARED 0.54, PBLUC_HILL_SLOPE 1.88, PBLUC_R_SQUARED 0.412, read-out: LUCIFERASE INFECTION ASSAY - IC50) came to 8.69 µM.
For `O=S(=O)(c1ccccc1)c1nc(Nc2ccc(F)cc2F)sc1Cl`, the IC90 is above 10 µM. Besides, the 50% inhibitory concentration (IC50) (HEPG2TOX_HILL_SLOPE 0.283, HEPG2TOX_R_SQUARED 0.886, PBLUC_HILL_SLOPE 3.77, PBLUC_R_SQUARED 0.219, read-out: LUCIFERASE INFECTION ASSAY - IC50) turned out to be 7.29 µM.
Consider `COc1ccc(CN2C(=O)N(CC(C)C)C3(CCN(CCCc4ccccc4)CC3)C2=O)cc1`, for which the IC90 came out at 4.86 µM. Moreover, the IC50 (HEPG2TOX_HILL_SLOPE 0.288, HEPG2TOX_R_SQUARED 0.281, PBLUC_HILL_SLOPE 3.96, PBLUC_R_SQUARED 0.368, read-out: LUCIFERASE INFECTION ASSAY - IC50) was determined as 2.79 µM.
In the case of `Cc1csc2sc(COC(=O)Nc3ccccc3)c(C)c12`, the IC90 is above 10.4 µM. Moreover, the half-inhibitory concentration (IC50) (HEPG2TOX_HILL_SLOPE 0.302, HEPG2TOX_R_SQUARED 0.714, PBLUC_HILL_SLOPE 1.42, PBLUC_R_SQUARED 0.482, read-out: LUCIFERASE INFECTION ASSAY - IC50) was 8.97 µM.
`CCCCCC(=O)Nc1ccc(C2=Nn3c(Cc4cccc5ccccc45)nnc3SC2)cc1`: the concentration for an effect of 90% (IC90) is above 10 µM. In addition, the IC50 (HEPG2TOX_HILL_SLOPE 0.272, HEPG2TOX_R_SQUARED 0.219, PBLUC_HILL_SLOPE 1.92, PBLUC_R_SQUARED 0.644, read-out: LUCIFERASE INFECTION ASSAY - IC50) amounted to 7.04 µM.
As to `Cc1ccc(/C=C2\CCc3c2nc2ccccc2c3C(=O)OCC#N)cc1`, the IC90 turned out to be 0.0147 µM. In addition, where the note is “HEPG2TOX_HILL_SLOPE 0.309, HEPG2TOX_R_SQUARED 0.18, PBLUC_HILL_SLOPE 16.5, PBLUC_R_SQUARED 0.242, read-out: LUCIFERASE INFECTION ASSAY - IC50”, the concentration for half-maximal inhibition (IC50) was 0.0129 µM.
For the compound `Cc1sc2ncnc(Oc3ccc4ccccc4c3)c2c1-c1ccccc1`, the concentration for an effect of 90% (IC90) was above 10 µM. Besides, the 50% inhibitory concentration (IC50) (HEPG2TOX_HILL_SLOPE 0.313, HEPG2TOX_R_SQUARED 0.61, PBLUC_HILL_SLOPE 2.74, PBLUC_R_SQUARED 0.421, read-out: LUCIFERASE INFECTION ASSAY - IC50) is 6.76 µM.
As to `N#C/C(C(=O)c1ccc([N+](=O)[O-])s1)=C1\Nc2ccccc2S1`, the IC90 is above 10 µM. In addition, the IC50 (HEPG2TOX_HILL_SLOPE 0.276, HEPG2TOX_R_SQUARED 0.471, PBLUC_HILL_SLOPE 0.885, PBLUC_R_SQUARED 0.549, read-out: LUCIFERASE INFECTION ASSAY - IC50) came to 0.951 µM.
As for `CCOc1cc(/C=C/C(=O)c2cccs2)cc(Br)c1OC`, the IC90 is above 10 µM. The IC50 (HEPG2TOX_HILL_SLOPE 0.301, HEPG2TOX_R_SQUARED 0.1, PBLUC_HILL_SLOPE 0.921, PBLUC_R_SQUARED 0.199, read-out: LUCIFERASE INFECTION ASSAY - IC50) is above 10 µM.
With `C(=C\c1cn2c(-c3cccnc3)cnc2cn1)/c1ccccc1`, the IC90 was above 11.1 µM. In addition, the IC50 (HEPG2TOX_HILL_SLOPE 0.303, HEPG2TOX_R_SQUARED 0.424, PBLUC_HILL_SLOPE 9.4, PBLUC_R_SQUARED 0.254, read-out: LUCIFERASE INFECTION ASSAY - IC50) was 8.93 µM.
With `Cc1ccc(-n2c(Sc3ccc([N+](=O)[O-])c4cnccc34)nnc2-c2ccccc2)cc1C`, the concentration for an effect of 90% (IC90) was above 10 µM. In addition, the IC50 (HEPG2TOX_HILL_SLOPE 0.296, HEPG2TOX_R_SQUARED 0.243, PBLUC_HILL_SLOPE 1.34, PBLUC_R_SQUARED 0.0191, read-out: LUCIFERASE INFECTION ASSAY - IC50) was above 10 µM.
On to `CS(=O)(=O)Nc1cccc(-c2cnc(N)c(-c3cccc(C(F)(F)F)c3)c2)c1`, for which the IC90 turned out to be 0.0724 µM. In addition, the IC50 (HEPG2TOX_HILL_SLOPE 0.275, HEPG2TOX_R_SQUARED 0.333, PBLUC_HILL_SLOPE 1.7, PBLUC_R_SQUARED 0.794, read-out: LUCIFERASE INFECTION ASSAY - IC50) is 0.0199 µM.
`O=C(Cn1cnc2sccc2c1=O)Nc1nc(-c2ccccn2)cs1`: the concentration for an effect of 90% (IC90) was above 10 µM. Besides, the IC50 (HEPG2TOX_HILL_SLOPE 0.285, HEPG2TOX_R_SQUARED 0.277, PBLUC_HILL_SLOPE 15.4, PBLUC_R_SQUARED 0.28, read-out: LUCIFERASE INFECTION ASSAY - IC50) came out at 9.25 µM.
As for `CCN(CC)CCn1c(NC(=O)c2cccc3c[nH]nc23)nc2ccccc21`, the IC90 is above 10 µM. Moreover, the half-maximal inhibitory concentration (IC50) (HEPG2TOX_HILL_SLOPE 0.322, HEPG2TOX_R_SQUARED 0.707, PBLUC_HILL_SLOPE 3.59, PBLUC_R_SQUARED 0.259, read-out: LUCIFERASE INFECTION ASSAY - IC50) was found to be 6.09 µM.
With `Cc1csc2ncnc(N3CCN(C(=O)Nc4ccc(Cl)c(Cl)c4)CC3)c12`, the IC90 was above 7.81 µM. Where the note is “HEPG2TOX_HILL_SLOPE 0.318, HEPG2TOX_R_SQUARED 0.0791, PBLUC_HILL_SLOPE 1.99, PBLUC_R_SQUARED 0.376, read-out: LUCIFERASE INFECTION ASSAY - IC50”, the IC50 is above 7.81 µM.
As for `COc1ccccc1-n1c(SCCn2c([N+](=O)[O-])cnc2C)nc2sc3c(c2c1=O)CCCC3`, the IC90 was 4.01 µM. Besides, the half-inhibitory concentration (IC50) (HEPG2TOX_HILL_SLOPE 0.275, HEPG2TOX_R_SQUARED 0.775, PBLUC_HILL_SLOPE 12.8, PBLUC_R_SQUARED 0.595, read-out: LUCIFERASE INFECTION ASSAY - IC50) is 3.38 µM.
Regarding `CCc1nn2c(=O)cc(CSc3nccc(C)n3)[nH]c2c1-c1ccc(F)cc1`, the concentration for an effect of 90% (IC90) was above 8.34 µM. Under “HEPG2TOX_HILL_SLOPE 0.32, HEPG2TOX_R_SQUARED 0.345, PBLUC_HILL_SLOPE 2.6, PBLUC_R_SQUARED 0.743, read-out: LUCIFERASE INFECTION ASSAY - IC50”, the half-inhibitory concentration (IC50) amounted to 4.67 µM.
